≈ marks a conversion by molar mass, not a printed value.
Legend:
[1] = tested on: Isoniazide-resistant TB 242; experiment: microbe, parasite or virus in culture; type: cell-based; conditions: Mycobacterium tuberculosis
[2] = tested on: Rifampicin-resistant TB 261; experiment: microbe, parasite or virus in culture; type: cell-based; conditions: Mycobacterium tuberculosis

Row | Compound | MIC [1] | MIC [2]
1 | NNC(=O)c1ccncc1 [Isoniazide] | 0.5 µg/mL (≈ 3.65 µM) | 0.125 µg/mL (≈ 0.911 µM)
2 | COC(=O)COc1ccc(NC(=O)COc2ccc(C)cc2C)cc1 [I, methyl 2-(4-(2-(2,4-dimethylphenoxy)acetamido)phenoxy)acetate] | 16 µg/mL (≈ 46.6 µM) | 4 µg/mL (≈ 11.6 µM)
3 | CO[C@H]1/C=C/O[C@@]2(C)Oc3c(C)c(O)c4c(O)c(c(/C=N/N5CCN(C)CC5)c(O)c4c3C2=O)NC(=O)/C(C)=C\C=C\[C@H](C)[C@H](O)[C@@H](C)[C@@H](O)[C@@H](C)[C@H](OC(C)=O)[C@@H]1C [Rifampicin] | ≤ 0.25 µg/mL | > 32 µg/mL
4 | O=C(COc1ccc([N+](=O)[O-])c(F)c1)Nc1ccccc1[N+](=O)[O-] [Compound 3m, 2-(3-Fluoro-4-nitrophenoxy)-N-(2-nitrophenyl)acetamide] | 32 µg/mL (≈ 95.5 µM) | 4 µg/mL (≈ 11.9 µM)

Source: article PMC6268079, “Synthesis and Biological Evaluation of 2-(3-Fluoro-4-nitro phenoxy)-N-phenylacetamide Derivatives as Novel Potential Affordable Antitubercular Agents” (Molecules, 2012)
